The source of these data is patent US9493472B2, “Substituted benzoxazoles” (BAYER PHARMA AKTIENGESELLSCHAFT, priority 2013, dated 2016).

Experiment [1] deals with T1, thrombin (Homo sapiens (Human), UniProt P00734). Briefly: Thrombin-inhibitory activity in plasma samples (ecarin-activated). The format is biochemical. The note with it: citrate plasma, prothrombinase activated by ecarin, fluorogenic thrombin substrate; in some cases means; read-out: IC50 [nM] thrombin inhibition in plasma samples. Here is the method: To determine the inhibition of thrombin in plasma samples, plasma […] is activated by ecarin. Thrombin activity and/or its inhibition by potential inhibitors is/are then measured fluorenscently by addition of a substrate.
The substances to be tested are dissolved in various concentrations in dimethyl sulphoxide and diluted with water. In white 96-well flat-bottomed plates, 20 μl of substance dilution are mixed with 20 μl of ecarin solution (ecarin reagent, from Sigma E-0504, final concentration 20 mU per reaction) in Ca buffer (200 mM Hepes+560 mM sodium chloride+10 mM calcium chloride+0.4% PEG) or with 20 μl of Ca buffer (as unstimulated control). Furthermore, 20 μl of fluorogenic thrombin substrate (from Bachem I-1120, final concentration 50 μmol/l) and 20 μl of citrate plasma (from Octapharma) are added, and the mixture is homogenized well. The plate is measured in a SpectraFluorplus Reader using a 360 nm excitation filter and a 465 nm emission filter every minute over 20 minutes.

Experiment [2] concerns the target T1, thrombin. In words: Measurement of the thrombin inhibition in buffer. The format is biochemical. The note with it: human thrombin 0.06 nmol/l, Tris buffer pH 7.4, 22° C.; substrate Boc-Asp(OBzl)-Pro-Arg-AMC; in some cases means. Here is the method: To determine the thrombin inhibition of the substances listed above, a biochemical test system is constructed in which the conversion of a thrombin substrate is used for determining the enzymatic activity of human thrombin. Here, thrombin cleaves aminomethylcoumarin, which is measured fluorescently, from the peptic substrate. The determinations are carried out in microtitre plates.
Substances to be tested are dissolved in various concentrations in dimethyl sulphoxide and incubated for 15 min with human thrombin (0.06 nmol/l dissolved in 50 mmol/l of Tris buffer [C,C,C-tris(hydroxymethyl)aminomethane], 100 mmol/l of sodium chloride, 0.1% BSA [bovine serum albumin], pH 7.4) at 22° C. The substrate (5 μmol/l Boc-Asp(OBzl)-Pro-Arg-AMC from Bachem) is then added. After 30 min of incubation, the sample is excited at a wavelength of 360 nm and the emission is measured at 460 nm. The measured emissions of the test batches with test substance are compared to the control batches without test substance (only dimethyl sulphoxide instead of test substance in dimethyl sulphoxide) and the IC50 values are calculated from the concentration/activity relationships.

For experiment [3], the system named is plasma (prothrombin time). In words: Anticoagulatory activity: prothrombin time (PT) in plasma. The note with it: 37° C., 3 minutes incubation, plasma species not given, in some cases means, read-out: IC50 [μM] (concentration of test substance which effects a doubling of the prothrombin time). Here is the method: The anticoagulatory activity of the test substances is determined in vitro in human plasma, rabbit plasma and rat plasma. To this end, blood is drawn off in a mixing ratio of sodium citrate/blood of 1:9 using a 0.11 molar sodium citrate solution as receiver. Immediately after the blood has been drawn off, it is mixed thoroughly and centrifuged at about 4000 g for 15 minutes. The supernatant is pipetted off.
The prothrombin time (PT, synonyms: thromboplastin time, quick test) is determined in the presence of varying concentrations of test substance or the corresponding solvent using a commercial test kit (Neoplastin® from Boehringer Mannheim or Hemoliance® RecombiPlastin from Instrumentation Laboratory). The test compounds are incubated with the plasma at 37° C. for 3 minutes. Coagulation is then started by addition of thromboplastin, and the time when coagulation occurs is determined. The concentration of test substance which effects a doubling of the prothrombin time is determined Representative activity data from this test are given in Table 3 below (in some cases as means of individual determinations): […]

Molecules are shown by their SMILES.

As for `COc1cc(C(=O)N2CCC(O)C(C)C2)cc2nc(NC(CF)c3cccc(Cl)c3)oc12` (single isomer, unassigned) [Example 2, (2-{[1-(3-Chlorophenyl)-2-fluoroethyl]amino}-7-methoxy-1,3-benzoxazol-5-yl)(4-hydroxy-3-methylpiperidin-1-yl)methanone], the IC50 on thrombin [1] and on thrombin [2] was 31 nM throughout.
On to `COc1cc(C(=O)N2CCC(O)C(C)C2)cc2nc(NC(CF)c3cccc(Cl)c3)oc12` (single isomer, unassigned) [Example 3, (2-{[1-(3-Chlorophenyl)-2-fluoroethyl]amino}-7-methoxy-1,3-benzoxazol-5-yl)(4-hydroxy-3-methylpiperidin-1-yl)methanone], for which the results for the IC50 (on thrombin [1]; at thrombin [2]; in experiment [3]) were 11.6 nM, 2.4 nM and 1.8 µM, respectively.
Consider `COc1cc(C(=O)N2CC(C)(C)OCC2CO)cc2nc(NC(CF)c3cccc(Cl)c3)oc12` (single isomer, unassigned) [Example 5, (2-{[1-(3-Chlorophenyl)-2-fluoroethyl]amino}-7-methoxy-1,3-benzoxazol-5-yl)[5-(hydroxymethyl)-2,2-dimethylmorpholin-4-yl]methanone], for which the results for the IC50 on thrombin [1] and at thrombin [2] were 4.8 nM and 1.1 nM, respectively.
The like results for `COc1cc(C(=O)N2CC(C)(C)OCC2CO)cc2nc(NC(CF)c3cccc(Cl)c3)oc12` (single isomer, unassigned) [Example 6, (2-{[1-(3-Chlorophenyl)-2-fluoroethyl]amino}-7-methoxy-1,3-benzoxazol-5-yl)[5-(hydroxymethyl)-2,2-dimethylmorpholin-4-yl]methanone] were, in that order, 16.5 nM and 9.7 nM.
On to `COc1cc(C(=O)N2CC(C)OC[C@H]2C)cc2nc(NC(CF)c3cccc(Cl)c3)oc12` (single isomer, unassigned) [Example 7], for which the IC50 amounted to 11.4 nM at thrombin [1], 5.3 nM at thrombin [2] and 1.9 µM in experiment [3].
For `COc1cc(C(=O)N2CC(C)OC[C@H]2C)cc2nc(NC(CF)c3cccc(Cl)c3)oc12` (single isomer, unassigned) [Example 8], the IC50 is 25.3 nM on thrombin [1] and 11 nM against thrombin [2].
Taken in the same sequence, the figures for `COc1cc(C(=O)N2CC(C)(CCO)OC[C@H]2C)cc2nc(NC(CF)c3cccc(Cl)c3)oc12` (single isomer, unassigned) [Example 10] were 1400 nM and 130 nM.
For the compound `COc1cc(C(=O)N2CC(C)(CCO)OC[C@H]2C)cc2nc(NC(CF)c3cccc(Cl)c3)oc12` (single isomer, unassigned) [Example 11], the IC50 came out at 5.7 nM at thrombin [1], 0.01 nM against thrombin [2] and 1 µM in experiment [3].
As for `COc1cc(C(=O)N2CC3CCN3C(=O)C2C)cc2nc(NC(CF)c3cccc(Cl)c3)oc12` (single isomer, unassigned) [Example 23, 4-[(2-{[1-(3-Chlorophenyl)-2-fluoroethyl]amino}-7-methoxy-1,3-benzoxazol-5-yl)carbonyl]-3-methyl-1,4-diazabicyclo[4.2.0]octan-2-one], the IC50 at thrombin [1] is 4.7 nM; against thrombin [2], 1.7 nM.
With `COc1cc(C(=O)N2CC(C)OC[C@@H]2CC(=O)O)cc2nc(NC(CF)c3cccc(Cl)c3)oc12` (single isomer, unassigned) [Example 24], the IC50 on thrombin [1] worked out at 4.5 nM.
As for `CCO[C@@H]1CC(CO)N(C(=O)c2cc(OC)c3oc(NC(CF)c4cccc(Cl)c4)nc3c2)C1` (single isomer, unassigned) [Example 27], the IC50 on thrombin [1] was 4.6 nM; against thrombin [2] it was 0.16 nM; in experiment [3] it was 1 µM.
As to `CCO[C@@H]1CC(CO)N(C(=O)c2cc(OC)c3oc(NC(CF)c4cccc(Cl)c4)nc3c2)C1` (single isomer, unassigned) [Example 28], the values for the IC50 on thrombin [1] and against thrombin [2] were 56 nM and 2.3 nM, respectively.
The like results for `CCO[C@@H]1CC(CCO)N(C(=O)c2cc(OC)c3oc(NC(CF)c4cccc(Cl)c4)nc3c2)C1` (single isomer, unassigned) [Example 30] were, in that order, 46 nM and 5.3 nM.
As for `CCO[C@@H]1CC(CCO)N(C(=O)c2cc(OC)c3oc(NC(CF)c4cccc(Cl)c4)nc3c2)C1` (single isomer, unassigned) [Example 31], the IC50 at thrombin [1] was 5 nM; against thrombin [2] it was 0.54 nM.
Taken in the same sequence, the figures for `COc1cc(C(=O)N2CC3(CC3)NC(=O)C2C)cc2nc(NC(CF)c3cccc(Cl)c3)oc12` (single isomer, unassigned) [Example 34, 7-[(2-{[1-(3-Chlorophenyl)-2-fluoroethyl]amino}-7-methoxy-1,3-benzoxazol-5-yl)carbonyl]-6-methyl-4,7-diazaspiro[2.5]octan-5-one] were 170 nM and 20 nM.
Taken in the same sequence, the figures for `COc1cc(C(=O)N2CCC(O)C(C)C2)cc2nc(NC(CF)c3cccc(Cl)c3)oc12` (stereo not drawn) [Example 1, (2-{[1-(3-Chlorophenyl)-2-fluoroethyl]amino}-7-methoxy-1,3-benzoxazol-5-yl)(4-hydroxy-3-methylpiperidin-1-yl)methanone] were 21 nM and 3.2 nM.
For `COc1cc(C(=O)N2CC(C)(C)OCC2CO)cc2nc(NC(CF)c3cccc(Cl)c3)oc12` (stereo not drawn) [Example 4, (2-{[1-(3-Chlorophenyl)-2-fluoroethyl]amino}-7-methoxy-1,3-benzoxazol-5-yl)[5-(hydroxymethyl)-2,2-dimethylmorpholin-4-yl]methanone], the values for the IC50 on thrombin [1] and at thrombin [2] were 9.8 nM and 1.7 nM, respectively.
Taken in the same sequence, the figures for `COc1cc(C(=O)N2CC(C)(CCO)OC[C@H]2C)cc2nc(NC(CF)c3cccc(Cl)c3)oc12` (stereo partly drawn) [Example 9, (2-{[1-(3-Chlorophenyl)-2-fluoroethyl]amino}-7-methoxy-1,3-benzoxazol-5-yl)[(5R)-2-(2-hydroxyethyl)-2,5-dimethylmorpholin-4-yl]methanone] were 14.3 nM and 0.2 nM.
Consider `COc1cc(C(=O)N2CC(C)OCC2CCO)cc2nc(NC(CF)c3cccc(Cl)c3)oc12` (stereo not drawn) [Example 13, (2-{[1-(3-Chlorophenyl)-2-fluoroethyl]amino}-7-methoxy-1,3-benzoxazol-5-yl)[5-(2-hydroxyethyl)-2-methylmorpholin-4-yl]methanone], for which the IC50 in experiment [3] came to 1.4 µM.
For `COc1cc(C(=O)N2CC(C)OC[C@]23C[C@H](O)C3)cc2nc(NC(CF)c3cccc(Cl)c3)oc12` (stereo partly drawn) [Example 22, (2-{[1-(3-Chlorophenyl)-2-fluoroethyl]amino}-7-methoxy-1,3-benzoxazol-5-yl)(cis-2-hydroxy-7-methyl-8-oxa-5-azaspiro[3.5]non-5-yl)methanone], the figures for the IC50 at thrombin [1] and at thrombin [2] were 3.8 nM and 1.6 nM, respectively.
For `CCO[C@@H]1CC(CO)N(C(=O)c2cc(OC)c3oc(NC(CF)c4cccc(Cl)c4)nc3c2)C1` (stereo partly drawn) [Example 26, (2-{[1-(3-Chlorophenyl)-2-fluoroethyl]amino}-7-methoxy-1,3-benzoxazol-5-yl)[(4R)-4-ethoxy-2-(hydroxymethyl)pyrrolidin-1-yl]methanone], the IC50 at thrombin [1] was found to be 2 nM; against thrombin [2] it was 0.19 nM.
Taken in the same sequence, the figures for `CCO[C@@H]1CC(CCO)N(C(=O)c2cc(OC)c3oc(NC(CF)c4cccc(Cl)c4)nc3c2)C1` (stereo partly drawn) [Example 29, (2-{[1-(3-Chlorophenyl)-2-fluoroethyl]amino}-7-methoxy-1,3-benzoxazol-5-yl)[(4R)-4-ethoxy-2-(2-hydroxyethyl)pyrrolidin-1-yl]methanone] were 15 nM and 1.1 nM.
The like results for `COc1cc(C(=O)N2CC3(CC3)NC(=O)C2C)cc2nc(NC(CF)c3cccc(Cl)c3)oc12` (stereo not drawn) [Example 32, 7-[(2-{[1-(3-Chlorophenyl)-2-fluoroethyl]amino}-7-methoxy-1,3-benzoxazol-5-yl)carbonyl]-6-methyl-4,7-diazaspiro[2.5]octan-5-one] were, in that order, 7.3 nM and 0.7 nM.
